Results: ChEMBL document CHEMBL1201862, “PubChem BioAssay data set” (2004)
Active and inactive are the calls of the source.

Key:
[1] = biological target: T1, Caspase-6 (Homo sapiens, UniProt P55212); assay: inhibition of CASP6 peptide cleavage – biochemical, VEID-R110 fluorescence, cherry-pick, dose response (AID 720632)
T1 sequence (P55212 whole entry): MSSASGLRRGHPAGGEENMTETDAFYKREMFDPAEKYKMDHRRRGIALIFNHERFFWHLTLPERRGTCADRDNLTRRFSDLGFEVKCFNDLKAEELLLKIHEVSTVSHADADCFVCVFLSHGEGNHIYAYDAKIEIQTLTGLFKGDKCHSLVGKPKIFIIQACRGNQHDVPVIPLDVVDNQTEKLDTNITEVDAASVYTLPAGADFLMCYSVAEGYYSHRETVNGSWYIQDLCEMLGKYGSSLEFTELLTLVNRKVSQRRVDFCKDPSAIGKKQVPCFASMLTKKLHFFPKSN

[2] = test system: HEK293; assay: Fluorescence-based counterscreen for potentiators or agonists of NPY-Y1: cell-based high-throughput dose response assay for inhibitors of cyclic nucleotide gated ion channel (CNGC) activity. In this assay, the parental HEK293 cell line transfected with a cyclic-nucleotide gated ion channel (CNGC)-based cAMP sensor is used to measure inhibition of isoproterenol-induced CNGC …; format: functional; conditions: Homo sapiens
[3] = biological target: T2, Calpain-2 catalytic subunit (Sus scrofa, UniProt P43367); assay: m-calpain protease blockers, concentration series – biochemical, fluorogenic peptide substrate, dose response (AID 1420); format: functional
T2 sequence (P43367 whole entry): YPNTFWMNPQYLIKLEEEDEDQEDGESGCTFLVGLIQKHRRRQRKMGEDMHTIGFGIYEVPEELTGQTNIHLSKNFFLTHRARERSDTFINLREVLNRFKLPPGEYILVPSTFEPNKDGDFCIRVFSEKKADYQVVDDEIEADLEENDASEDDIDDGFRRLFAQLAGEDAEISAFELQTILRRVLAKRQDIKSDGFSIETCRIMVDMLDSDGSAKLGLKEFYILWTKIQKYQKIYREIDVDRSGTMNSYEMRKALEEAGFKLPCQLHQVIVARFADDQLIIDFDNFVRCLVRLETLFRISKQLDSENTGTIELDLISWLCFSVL

[4] = biological target: Protein kinase C theta type (Homo sapiens, UniProt Q04759); assay: Navigating the Kinome. Panel member name: PRKCQ; format: functional
Chain of Protein kinase C theta type (Q04759 whole entry): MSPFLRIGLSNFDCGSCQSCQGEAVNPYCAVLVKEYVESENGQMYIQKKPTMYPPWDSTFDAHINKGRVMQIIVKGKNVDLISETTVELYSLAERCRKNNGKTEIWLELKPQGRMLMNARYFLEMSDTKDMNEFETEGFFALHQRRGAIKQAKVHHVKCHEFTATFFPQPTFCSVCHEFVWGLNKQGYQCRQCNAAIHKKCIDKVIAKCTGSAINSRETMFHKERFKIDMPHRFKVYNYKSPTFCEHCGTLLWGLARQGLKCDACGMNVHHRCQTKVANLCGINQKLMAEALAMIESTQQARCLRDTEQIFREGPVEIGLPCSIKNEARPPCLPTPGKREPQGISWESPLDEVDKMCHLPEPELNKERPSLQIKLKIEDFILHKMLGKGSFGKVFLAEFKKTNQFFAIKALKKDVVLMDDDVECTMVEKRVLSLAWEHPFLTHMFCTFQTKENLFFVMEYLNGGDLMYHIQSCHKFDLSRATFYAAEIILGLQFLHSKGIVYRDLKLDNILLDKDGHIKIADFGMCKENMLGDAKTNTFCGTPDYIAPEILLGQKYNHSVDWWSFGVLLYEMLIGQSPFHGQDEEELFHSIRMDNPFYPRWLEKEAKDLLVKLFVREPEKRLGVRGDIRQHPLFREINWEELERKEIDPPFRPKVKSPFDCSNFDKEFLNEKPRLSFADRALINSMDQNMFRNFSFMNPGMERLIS

[5] = biological target: Megakaryocyte-associated tyrosine-protein kinase (Homo sapiens, UniProt P42679); format: functional;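 further: affinity measured as one member of a kinase panel (Navigating the Kinome) against MATK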
[6] = biological target: Dual specificity protein kinase CLK2 (Homo sapiens, UniProt P49760); format: functional
[7] = biological target: 5'-AMP-activated protein kinase catalytic subunit alpha-1 (Homo sapiens, UniProt Q13131); format: functional
[8] = biological target: Serine/threonine-protein kinase D2 (Homo sapiens, UniProt Q9BZL6); format: functional;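 further: measured against PRKD2 as one member of a kinome-wide kinase profiling panel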
Chain of Serine/threonine-protein kinase D2 (Q9BZL6 whole entry): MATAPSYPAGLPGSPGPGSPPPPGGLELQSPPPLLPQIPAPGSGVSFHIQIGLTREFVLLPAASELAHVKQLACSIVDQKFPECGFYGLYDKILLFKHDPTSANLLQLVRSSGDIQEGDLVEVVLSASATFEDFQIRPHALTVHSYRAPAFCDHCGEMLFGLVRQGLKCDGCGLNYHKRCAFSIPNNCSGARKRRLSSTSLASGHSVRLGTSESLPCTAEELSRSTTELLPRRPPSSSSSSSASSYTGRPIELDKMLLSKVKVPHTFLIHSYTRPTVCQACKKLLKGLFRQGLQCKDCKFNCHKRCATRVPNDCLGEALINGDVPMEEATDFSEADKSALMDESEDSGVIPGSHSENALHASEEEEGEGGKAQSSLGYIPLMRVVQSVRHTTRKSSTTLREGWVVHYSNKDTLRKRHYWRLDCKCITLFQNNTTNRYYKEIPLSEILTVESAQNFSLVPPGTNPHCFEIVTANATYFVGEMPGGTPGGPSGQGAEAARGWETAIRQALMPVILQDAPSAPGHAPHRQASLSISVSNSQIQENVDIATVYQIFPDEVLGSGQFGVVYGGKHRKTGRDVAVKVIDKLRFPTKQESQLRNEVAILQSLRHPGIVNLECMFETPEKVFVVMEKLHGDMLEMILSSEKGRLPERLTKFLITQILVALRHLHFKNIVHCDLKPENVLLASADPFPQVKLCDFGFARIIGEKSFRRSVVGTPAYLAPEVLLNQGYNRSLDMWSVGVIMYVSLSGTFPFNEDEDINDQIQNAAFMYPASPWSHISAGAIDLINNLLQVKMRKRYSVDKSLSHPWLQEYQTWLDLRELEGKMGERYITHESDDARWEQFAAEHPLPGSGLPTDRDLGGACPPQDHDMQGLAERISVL

[9] = biological target: Calcium/calmodulin-dependent protein kinase type II subunit gamma (Homo sapiens, UniProt Q13555); format: functional
[10] = biological target: Tyrosine-protein kinase receptor TYRO3 (Homo sapiens, UniProt Q06418); format: functional;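 further: TYRO3 value obtained as one member of a kinome-wide profiling panel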
Chain of Tyrosine-protein kinase receptor TYRO3 (Q06418 whole entry): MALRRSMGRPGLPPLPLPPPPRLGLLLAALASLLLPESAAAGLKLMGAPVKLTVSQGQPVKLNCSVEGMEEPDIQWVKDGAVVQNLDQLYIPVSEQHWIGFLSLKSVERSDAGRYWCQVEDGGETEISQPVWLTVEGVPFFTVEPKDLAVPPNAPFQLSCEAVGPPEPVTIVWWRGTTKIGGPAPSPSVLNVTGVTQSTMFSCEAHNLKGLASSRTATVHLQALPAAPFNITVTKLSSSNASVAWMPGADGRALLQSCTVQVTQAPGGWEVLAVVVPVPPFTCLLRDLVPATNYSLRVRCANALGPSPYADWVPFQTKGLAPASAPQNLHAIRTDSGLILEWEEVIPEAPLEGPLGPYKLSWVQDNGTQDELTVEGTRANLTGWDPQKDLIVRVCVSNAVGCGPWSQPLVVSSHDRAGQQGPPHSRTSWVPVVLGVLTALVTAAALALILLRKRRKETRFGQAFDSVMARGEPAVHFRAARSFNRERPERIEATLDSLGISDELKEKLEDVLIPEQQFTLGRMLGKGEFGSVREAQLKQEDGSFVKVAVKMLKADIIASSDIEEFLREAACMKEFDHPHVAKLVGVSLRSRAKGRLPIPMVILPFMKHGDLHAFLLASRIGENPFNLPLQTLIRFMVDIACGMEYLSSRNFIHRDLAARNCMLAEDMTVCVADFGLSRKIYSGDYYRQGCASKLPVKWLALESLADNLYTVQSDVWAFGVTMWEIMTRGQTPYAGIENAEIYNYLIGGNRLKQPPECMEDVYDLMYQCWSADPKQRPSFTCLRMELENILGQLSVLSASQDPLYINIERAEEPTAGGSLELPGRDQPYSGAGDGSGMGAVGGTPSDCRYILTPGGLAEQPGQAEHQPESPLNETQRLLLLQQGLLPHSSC

[11] = biological target: Testis-specific serine/threonine-protein kinase 2 (Homo sapiens, UniProt Q96PF2); format: functional;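 further: part of the Navigating the Kinome panel, target entry STK22B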
[12] = biological target: Mitogen-activated protein kinase 8 (Homo sapiens, UniProt P45983); format: functional;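 further: value comes from one member of a kinome-wide kinase profiling panel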
[13] = biological target: MAP kinase-activated protein kinase 5 (Homo sapiens, UniProt Q8IW41); format: functional;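 further: measured as one member of a kinome panel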
Chain of MAP kinase-activated protein kinase 5 (Q8IW41 whole entry): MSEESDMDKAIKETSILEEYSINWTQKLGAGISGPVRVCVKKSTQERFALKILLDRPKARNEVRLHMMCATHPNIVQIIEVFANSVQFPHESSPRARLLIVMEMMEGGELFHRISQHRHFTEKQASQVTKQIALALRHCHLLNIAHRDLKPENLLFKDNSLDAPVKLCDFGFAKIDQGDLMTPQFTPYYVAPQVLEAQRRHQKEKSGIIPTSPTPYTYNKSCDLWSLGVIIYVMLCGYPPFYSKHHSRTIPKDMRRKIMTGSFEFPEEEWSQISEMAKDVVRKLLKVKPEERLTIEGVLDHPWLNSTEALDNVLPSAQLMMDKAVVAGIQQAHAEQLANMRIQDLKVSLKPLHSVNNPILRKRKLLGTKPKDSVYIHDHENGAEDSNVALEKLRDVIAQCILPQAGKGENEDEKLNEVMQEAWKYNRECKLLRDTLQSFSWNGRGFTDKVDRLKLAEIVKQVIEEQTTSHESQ

[14] = biological target: Mast/stem cell growth factor receptor Kit (Homo sapiens, UniProt P10721); format: functional;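 further: KIT entry within a kinase panel assay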
[15] = biological target: Fibroblast growth factor receptor 1 (Homo sapiens, UniProt P11362); format: functional
[16] = biological target: Casein kinase I isoform gamma-1 (Homo sapiens, UniProt Q9HCP0); format: functional;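 further: measured as the CSNK1G1 member of a kinome profiling panel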
Chain of Casein kinase I isoform gamma-1 (Q9HCP0 whole entry, canonical isoform): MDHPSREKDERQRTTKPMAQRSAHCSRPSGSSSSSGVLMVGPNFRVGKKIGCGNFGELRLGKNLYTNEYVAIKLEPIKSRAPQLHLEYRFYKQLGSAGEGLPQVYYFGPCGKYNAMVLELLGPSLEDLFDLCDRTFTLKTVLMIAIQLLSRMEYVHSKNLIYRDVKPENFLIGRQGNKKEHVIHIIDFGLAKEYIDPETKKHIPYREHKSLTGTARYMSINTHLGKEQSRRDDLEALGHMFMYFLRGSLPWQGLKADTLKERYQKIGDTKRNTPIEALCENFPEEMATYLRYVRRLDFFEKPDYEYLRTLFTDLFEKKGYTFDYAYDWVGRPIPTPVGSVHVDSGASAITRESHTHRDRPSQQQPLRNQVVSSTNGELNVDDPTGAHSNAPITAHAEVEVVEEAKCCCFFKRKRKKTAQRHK

[17] = biological target: Tyrosine-protein kinase Lyn (Homo sapiens, UniProt P07948); format: functional;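 further: lyn as one member of a kinase panel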
[18] = biological target: Tyrosine-protein kinase ITK/TSK (Homo sapiens, UniProt Q08881); format: functional;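 further: affinity for ITK measured as one member of a broad kinase panel profiling binding across the kinome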
[19] = biological target: Serine/threonine-protein kinase N2 (Homo sapiens, UniProt Q16513); format: functional
[20] = biological target: Calcium/calmodulin-dependent protein kinase kinase 2 (Homo sapiens, UniProt Q96RR4); assay: Navigating the Kinome. Panel member name: CAMKK2; format: functional
[21] = biological target: Insulin receptor (Homo sapiens, UniProt P06213); format: functional;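 further: insulin receptor kinase tested as one member of a kinome-wide kinase panel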
[22] = biological target: Mitogen-activated protein kinase kinase kinase 20 (Homo sapiens, UniProt Q9NYL2); format: functional
Chain of Mitogen-activated protein kinase kinase kinase 20 (Q9NYL2 whole entry): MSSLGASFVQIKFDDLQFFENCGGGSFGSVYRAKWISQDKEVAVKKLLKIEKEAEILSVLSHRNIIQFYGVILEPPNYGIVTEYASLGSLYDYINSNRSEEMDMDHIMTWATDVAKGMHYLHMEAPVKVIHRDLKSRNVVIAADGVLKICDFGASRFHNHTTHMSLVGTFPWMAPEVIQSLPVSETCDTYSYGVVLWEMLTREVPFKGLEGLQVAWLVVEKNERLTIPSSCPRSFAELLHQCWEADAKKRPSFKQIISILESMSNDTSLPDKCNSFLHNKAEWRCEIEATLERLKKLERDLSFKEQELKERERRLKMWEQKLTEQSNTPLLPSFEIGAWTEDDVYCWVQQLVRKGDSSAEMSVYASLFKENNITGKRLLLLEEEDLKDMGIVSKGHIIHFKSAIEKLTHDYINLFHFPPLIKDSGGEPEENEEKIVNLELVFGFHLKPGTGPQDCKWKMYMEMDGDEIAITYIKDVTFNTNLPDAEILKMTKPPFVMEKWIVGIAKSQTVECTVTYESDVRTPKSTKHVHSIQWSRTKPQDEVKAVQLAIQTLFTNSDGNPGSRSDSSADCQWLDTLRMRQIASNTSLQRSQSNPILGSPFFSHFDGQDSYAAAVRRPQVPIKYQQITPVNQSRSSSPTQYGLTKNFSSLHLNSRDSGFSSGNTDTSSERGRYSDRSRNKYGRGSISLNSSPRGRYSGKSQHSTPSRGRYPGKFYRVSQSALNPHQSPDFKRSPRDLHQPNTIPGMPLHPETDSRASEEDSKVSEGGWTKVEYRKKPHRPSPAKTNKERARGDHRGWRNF

[23] = biological target: Glycogen synthase kinase-3 alpha (Homo sapiens, UniProt P49840); format: functional;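 further: GSK3A result taken from a broad kinome-wide kinase panel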
[24] = biological target: Dual specificity tyrosine-phosphorylation-regulated kinase 3 (Homo sapiens, UniProt O43781); format: functional;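 further: measured as one member of a broad kinase panel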
[25] = biological target: Receptor tyrosine-protein kinase erbB-2 (Homo sapiens, UniProt P04626); assay: Navigating the Kinome. Panel member name: ERBB2; format: functional
[26] = biological target: Serine/threonine-protein kinase Chk1 (Homo sapiens, UniProt O14757); format: functional;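 further: measured as one member of a kinome-wide kinase profiling panel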
[27] = biological target: Protein kinase C iota type (Homo sapiens, UniProt P41743); format: functional;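 further: measured within a kinome-wide kinase panel, PRKCI as panel member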
[28] = biological target: Dual specificity tyrosine-phosphorylation-regulated kinase 1B (Homo sapiens, UniProt Q9Y463); assay: Navigating the Kinome. Panel member name: DYRK1B; format: functional
Chain of Dual specificity tyrosine-phosphorylation-regulated kinase 1B (Q9Y463 whole entry): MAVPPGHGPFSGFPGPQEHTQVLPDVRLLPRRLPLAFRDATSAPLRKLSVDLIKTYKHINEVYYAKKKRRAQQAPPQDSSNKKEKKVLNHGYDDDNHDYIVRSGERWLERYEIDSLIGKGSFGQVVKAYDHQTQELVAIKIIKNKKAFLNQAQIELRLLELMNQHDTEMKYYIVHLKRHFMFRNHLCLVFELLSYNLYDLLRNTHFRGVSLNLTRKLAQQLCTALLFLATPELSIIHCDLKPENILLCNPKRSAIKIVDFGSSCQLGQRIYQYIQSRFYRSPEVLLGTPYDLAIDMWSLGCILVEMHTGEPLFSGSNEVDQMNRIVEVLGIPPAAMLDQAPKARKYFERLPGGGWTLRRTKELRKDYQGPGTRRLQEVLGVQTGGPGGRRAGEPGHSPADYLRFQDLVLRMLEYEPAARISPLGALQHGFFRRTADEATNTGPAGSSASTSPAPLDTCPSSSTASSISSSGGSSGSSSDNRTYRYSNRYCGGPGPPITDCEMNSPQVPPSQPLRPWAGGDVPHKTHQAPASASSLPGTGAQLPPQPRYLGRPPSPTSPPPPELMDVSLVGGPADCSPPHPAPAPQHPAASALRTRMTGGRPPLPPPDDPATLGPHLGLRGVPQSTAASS

[29] = biological target: Leucine-rich repeat serine/threonine-protein kinase 2 (Homo sapiens, UniProt Q5S007); format: functional;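 further: value from a broad kinome-wide panel profiling study in which LRRK2 was one of the kinases tested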
[30] = biological target: Vascular endothelial growth factor receptor 3 (Homo sapiens, UniProt P35916); format: functional;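 further: value from a kinome-wide profiling panel, with FLT4 as the panel member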
[31] = biological target: Rho-associated protein kinase 1 (Homo sapiens, UniProt Q13464); format: functional;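 further: measured within a broad kinome-wide panel profiling many kinases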
[32] = biological target: Tyrosine-protein kinase Fer (Homo sapiens, UniProt P16591); format: functional;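 further: FER tested as one member of a kinome panel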
[33] = biological target: Cyclin-dependent kinase 8 (Homo sapiens, UniProt P49336); assay: Navigating the Kinome. Panel member name: CDK8; format: functional
[34] = biological target: Fibroblast growth factor receptor 3 (Homo sapiens, UniProt P22607); format: functional
[35] = biological target: Cyclin-dependent kinase 9 (Homo sapiens, UniProt P50750); format: functional;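 further: value from the CDK9 entry of a kinome-spanning kinase panel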
[36] = biological target: Receptor tyrosine-protein kinase erbB-4 (Homo sapiens, UniProt Q15303); format: functional;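 further: ERBB4 member of a kinome-wide kinase profiling panel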
[37] = biological target: Mitogen-activated protein kinase 12 (Homo sapiens, UniProt P53778); format: functional;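 further: measured as one member of a kinome-wide kinase profiling panel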
[38] = biological target: Serine/threonine-protein kinase MRCK alpha (Homo sapiens, UniProt Q5VT25); format: functional

## O=C(COC(=O)c1ccc([N+](=O)[O-])s1)NCCc1ccccc1
[1]
  AC50: 11000 nM (active)

## COCC/N=c1\scc(-c2cccs2)n1/N=C/c1ccc(O)c(O)c1O
[2]
  IC50: > 11800 nM (not active)
[3]
  IC50: 38900 nM (not active)

## OC1CCC(Nc2cc(Cl)nc(-c3c[nH]c4ncccc34)n2)CC1 (stereo not drawn)
[4]
  Ki: 100 nM (active)
[5]
  Ki: 1580 nM (active)
[6]
  Ki: 794 nM (active)
[7]
  Ki: 200 nM (active)
[8]
  Ki: 316 nM (active)
[9]
  Ki: 794 nM (active)
[10]
  Ki: > 2510 nM (inactive)
[11]
  Ki: > 1000 nM (inactive)
[12]
  Ki: 2510 nM (active)
[13]
  Ki: > 1580 nM (inactive)
[14]
  Ki: > 2510 nM (inactive)
[15]
  Ki: > 2000 nM (inactive)
[16]
  Ki: 3160 nM (active)
[17]
  Ki: > 1000 nM (inactive)
[18]
  Ki: > 1580 nM (inactive)
[19]
  Ki: 12.6 nM (active)
[20]
  Ki: > 2510 nM (inactive)
[21]
  Ki: > 3980 nM (inactive)
[22]
  Ki: > 7940 nM (inactive)
[23]
  Ki: 31.6 nM (active)
[24]
  Ki: 50.1 nM (active)
[25]
  Ki: 1000 nM (active)
[26]
  Ki: 1000 nM (active)
[27]
  Ki: 398 nM (active)
[28]
  Ki: 316 nM (active)
[29]
  Ki: 31.6 nM (active)
[30]
  Ki: 63.1 nM (active)
[31]
  Ki: 31.6 nM (active)
[32]
  Ki: 501 nM (active)
[33]
  Ki: 501 nM (active)
[34]
  Ki: > 2000 nM (inactive)
[35]
  Ki: 251 nM (active)
[36]
  Ki: > 3980 nM (inactive)
[37]
  Ki: 1580 nM (active)
[38]
  Ki: 20 nM (active)
